ChEMBL document CHEMBL1777696, “Anti-inflammatory activity of constituents from Glechoma hederacea var. longituba” (Bioorg Med Chem Lett, 2011)
Activity calls are given as the source filed them. The rule behind the calls is not given here.

Columns and labels:
HepG2 [1] = test: Cytotoxicity against human HepG2 cells up to 20 uM after 24 hrs by MTS assay; assay type: cell-based; conditions: hepg2, 24 h
HepG2 [2] = test: Inhibition of TNF-alpha-induced NF-kappaB transactivation expressed in human HepG2 cells at 20 uM preincubated 1 hr before TNFalpha challenge measured after 1 hr by luciferase reporter gene assay; assay type: cell-based
HepG2 [3] = test: Inhibition of TNF-alpha-induced iNOS mRNA expression in human HepG2 cells expressing NF-kappaB preincubated 1 hr before TNFalpha challenge measured after 6 hrs by RT-PCR analysis; assay type: functional, cell-based
HepG2 [4] = test: Inhibition of TNF-alpha-induced NF-kappaB transactivation expressed in human HepG2 cells at 10 uM preincubated 1 hr before TNFalpha challenge measured after 1 hr by luciferase reporter gene assay; assay type: cell-based
HepG2 [5] = test: Inhibition of TNF-alpha-induced COX2 mRNA expression in human HepG2 cells expressing NF-kappaB preincubated 1 hr before TNFalpha challenge measured after 6 hrs by RT-PCR analysis; assay type: functional, cell-based
HepG2 [6] = test: Inhibition of TNF-alpha-induced NF-kappaB transactivation expressed in human HepG2 cells at 0.1 to 20 uM preincubated 1 hr before TNFalpha challenge measured after 1 hr by luciferase reporter gene assay; assay type: cell-based

With `COC(=O)[C@@H](Cc1ccc(O)c(O)c1)OC(=O)/C=C/c1ccc(OC)c(O)c1` the Activity (HepG2 [1]) was “Non-toxic”, the inhibition (HepG2 [2]) was 45.4% and the inhibition (HepG2 [3]) was “Dose-dependent effect”. For the same molecule, the inhibition (HepG2 [4]) was 28.7% and the inhibition (HepG2 [5]) was “Dose-dependent effect”.

For `O=C(OCc1ccccc1)c1ccc(O)c(O[C@@H]2O[C@H](CO)[C@@H](O)[C@H](O)[C@H]2O)c1`, the Activity (HepG2 [1]) was “Non-toxic” and the inhibition (HepG2 [6]) was “Active”.

In the case of `COc1cc(/C=C/C(=O)O[C@H](Cc2ccc(O)c(O)c2)C(=O)O)ccc1O`, the Activity (HepG2 [1]) is reported as “Non-toxic” and the inhibition (HepG2 [6]) is reported as “Active”.

`CCOC(=O)[C@@H](Cc1ccc(O)c(O)c1)OC(=O)/C=C/c1ccc(O)c(O)c1` [ETHYL ROSMARINATE] was tested, and the Activity (HepG2 [1]) was “Non-toxic”, the inhibition (HepG2 [2]) was 57% and the inhibition (HepG2 [3]) was “Dose-dependent effect”. For the same molecule, the inhibition (HepG2 [5]) was “Dose-dependent effect”.

In the case of `COC(=O)[C@@H](Cc1ccc(O)c(O)c1)OC(=O)/C=C/c1ccc(O)c(O)c1` [METHYL ROSMARINATE], the Activity (HepG2 [1]) is reported as “Non-toxic”, the inhibition (HepG2 [2]) is reported as 44.3% and the inhibition (HepG2 [3]) is reported as “Dose-dependent effect”. For the same molecule, the inhibition (HepG2 [5]) was “Dose-dependent effect”.

With `O=C(/C=C/c1ccc(O)c(O)c1)O[C@H](Cc1ccc(O)c(O)c1)C(=O)O` [ROSMARINIC ACID] the Activity (HepG2 [1]) was “Non-toxic” and the inhibition (HepG2 [2]) was 22.7%.
